According to the NIST ThermoML archive (doi:10.1021/je400214b):
± gives the expanded uncertainty stated by the source.

Tests used:
[1] = refractive index (Na D-line) (dimensionless); details: 293.15 K; 101.33 kPa; Liquid; Standard Abbe refractometry
[2] = Liquid; for mass density: 293.15 K, 101.33 kPa, Vibrating tube method; for vapor or sublimation pressure: Ebulliometric method (Recirculating still)

vapor or sublimation pressure ([2]; 351.15 K) | vapor or sublimation pressure ([2]; 449.15 K) | SMILES | refractive index [1] | mass density [2] | vapor or sublimation pressure ([2]; 350.15 K) | vapor or sublimation pressure ([2]; 483.15 K)
– | – | C=CC#N [acrylonitrile] | 1.3909 ± 0.0007 | 806 ± 0.2 kg/m3 | 96.5 ± 9.7 kPa | –
96.5 ± 9.7 kPa | – | CCO [ethanol] | 1.361 ± 0.0007 | 788.9 ± 0.2 kg/m3 | – | –
– | – | O=[N+]([O-])c1ccccc1 [nitrobenzene] | 1.5529 ± 0.0007 | 1198.8 ± 0.2 kg/m3 | – | 96.5 ± 9.7 kPa
– | 96.5 ± 9.7 kPa | CCCCCCCO [heptan-1-ol] | – | – | – | –
